The source of these data is patent US11045457B2, “Piperidinyl-3-(aryloxy)propanamides and propanoates” (priority 2018, dated 2021).

Assay [1] deals with T1, SSTR4 (Homo sapiens (Human), UniProt P31391). The assay can be described thus: Inhibition of forskolin stimulated cAMP in CHO-K1 cells overexpressing SSTR4. It is filed as cell-based. The following applies: for EC50: read-out: SSTR4 Activity pEC50 (converted). The essentials: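 Read-out is a HTRF LANCE Ultra cAMP competition using Eu-labelled streptavidin and biotin-cAMP, incubated 60 min at room temperature. It followed a 30 min room-temperature exposure of Kreb's Ringer-washed cells to compound plus forskolin. Potency is expressed as pEC50.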

Assay [2] deals with T1, SSTR4. As to the kind of experiment: SSTR4 I-125 somatostatin competition binding assay (membranes from CHO-K1 cells overexpressing SSTR4). The following applies: competition with I-125 labeled somatostatin; for IC50: read-out: SSTR4 Binding pIC50 (converted).
Protocol: Membranes from CHO-K1 cells overexpressing SSTR4 are purchased from Perkin Elmer (catalog number ES-524-M400UA). Test compounds are suspended in DMSO and then diluted in assay buffer (25 mM HEPES pH 7.4, 10 mM MgCl2, 1 mM CaCl2), 0.5% BSA) plus 0.2 nM I-125 labeled somatostatin (Perkin Elmer catalog number NEX389). […] Then 1 μg of SSTR4 membranes in 50 μL assay buffer are added per well. The Plate is incubated for 60 minutes at room temperature. FilterMat A filters (Perkin Elmer catalog number 1450-421) are pre-soaked in 0.5% PEI (Sigma catalog number P3143). The contents of the assay plate are transferred to filters with a TomTech harvester and washed 5 times with 20 mM HEPES, 100 mM NaCl. The filters are dried in a microwave oven then transferred to sample bag containing a scintillator sheet (Perkin Elmer catalog number 1450-441). The scintillator sheets are melted to filters using a heat block. The filters are then read in a MicroBeta scintillation counter. Binding Ki curves are generated using Activity Base for Screening Data Management and the results are reported as pIC50.

Structures are written as SMILES.

T1 sequence (P31391 whole entry): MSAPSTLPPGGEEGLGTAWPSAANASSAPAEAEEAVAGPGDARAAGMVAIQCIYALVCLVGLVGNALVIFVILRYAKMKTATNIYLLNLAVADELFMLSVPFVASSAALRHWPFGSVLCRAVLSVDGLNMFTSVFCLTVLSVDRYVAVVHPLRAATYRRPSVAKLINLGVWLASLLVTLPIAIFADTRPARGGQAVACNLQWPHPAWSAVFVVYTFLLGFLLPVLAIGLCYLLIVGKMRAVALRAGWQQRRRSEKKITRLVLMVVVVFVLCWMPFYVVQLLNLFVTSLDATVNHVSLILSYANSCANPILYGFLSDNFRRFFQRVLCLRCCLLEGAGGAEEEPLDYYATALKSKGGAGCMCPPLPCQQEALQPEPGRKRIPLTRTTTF

As to `CC[C@@H]1CN(C)CC[C@H]1NC(=O)C(C)(C)COc1ncccc1OC(F)(F)F` (racemic) [Example 115, N-(trans-3-ethyl-1-methylpiperidin-4-yl)-2,2-dimethyl-3-((3-(trifluoromethoxy)pyridin-2-yl)oxy)propanamide], the EC50 on SSTR4 [1] was 0.631 nM. The IC50 on SSTR4 [2] is 5.01 nM.

Turning to `Cc1ncccc1[C@@H]1CNCC[C@H]1OC(=O)C(C)(C)COc1ncccc1C(F)(F)F` (racemic) [Example 170, trans-3-(2-methylpyridin-3-yl)piperidin-4-yl 2,2-dimethyl-3-((3-(trifluoromethyl)pyridin-2-yl)oxy)propanoate], the EC50 at SSTR4 [1] was 39.8 nM. Moreover, the IC50 on SSTR4 [2] was 200 nM.

As to `C[C@H]1C[C@@H](NC(=O)C(F)(F)COc2ncccc2C(F)(F)F)CCN1C` (racemic) [Example 191, cis-N-(1,2-dimethylpiperidin-4-yl)-2,2-difluoro-3-((3-(trifluoromethyl)pyridin-2-yl)oxy)propanamide], the EC50 on SSTR4 [1] was 79.4 nM. In addition, the IC50 on SSTR4 [2] is 200 nM.

As for `Cc1cccnc1OCC(F)(F)C(=O)N[C@@H]1CCN(C)C[C@H]1C` (racemic) [Example 199, N-(trans-1,3-dimethylpiperidin-4-yl)-2,2-difluoro-3-((3-methylpyridin-2-yl)oxy)propanamide], the EC50 on SSTR4 [1] is 158 nM. In addition, the IC50 at SSTR4 [2] was 794 nM.

As for `C[C@@H]1CN(C)CC[C@H]1NC(=O)C(C)(C)COc1ncccc1C(F)(F)F` (relative stereo) [Example 11, trans-N-(1,3-dimethylpiperidin-4-yl)-2,2-dimethyl-3-((3-(trifluoromethyl)pyridin-2-yl)oxy)propanamide], the “SSTR4 Activity pEC50” value at SSTR4 [1] was 8.0. For the same compound, the “SSTR4 Binding pIC50” value at SSTR4 [2] was determined as 7.0.

As to `C[C@@H]1CN(C)CC[C@H]1NC(=O)C(C)(C)COc1ncccc1C1CC1` (relative stereo) [Example 20, trans-3-((3-cyclopropylpyridin-2-yl)oxy)-N-(1,3-dimethylpiperidin-4-yl)-2,2-dimethylpropanamide], at SSTR4 [1], the “SSTR4 Activity pEC50” value worked out at 8.3. At SSTR4 [2], the “SSTR4 Binding pIC50” value was found to be 7.2.

Regarding `C[C@@H]1CN(C)CC[C@H]1NC(=O)C(C)(C)COc1ncccc1C(F)(F)F` (relative stereo) [Example 109, trans-N-(1,3-dimethylpiperidin-4-yl)-2,2-dimethyl-3-((3-(trifluoromethyl)pyridin-2-yl)oxy)propanamide], the “SSTR4 Activity pEC50” value at SSTR4 [1] is 8.0. Besides, the “SSTR4 Binding pIC50” value on SSTR4 [2] was 7.0.

For the compound `CC[C@@H]1CN(C)CC[C@@H]1NC(=O)C(C)(C)COc1ncccc1C(F)(F)F` (relative stereo) [Example 111, cis-N-(3-ethyl-1-methylpiperidin-4-yl)-2,2-dimethyl-3-((3-(trifluoromethyl)pyridin-2-yl)oxy)propanamide], at SSTR4 [1], the “SSTR4 Activity pEC50” value turned out to be 7.7. For the same compound, on SSTR4 [2], the “SSTR4 Binding pIC50” value is listed as 6.7.

In the case of `CC[C@@H]1CN(C)CC[C@@H]1NC(=O)C(C)(C)COc1ncccc1OC(F)(F)F` (relative stereo) [Example 116, N-(cis-3-ethyl-1-methylpiperidin-4-yl)-2,2-dimethyl-3-((3-(trifluoromethoxy)pyridin-2-yl)oxy)propanamide], at SSTR4 [1], the “SSTR4 Activity pEC50” value stood at 7.5. In addition, the “SSTR4 Binding pIC50” value on SSTR4 [2] came to 6.2.

Consider `C[C@H]1C[C@@H](NC(=O)C(C)(C)COc2ncccc2C(F)(F)F)CCN1C` (relative stereo) [Example 129, cis-N-(1,2-dimethylpiperidin-4-yl)-2,2-dimethyl-3-((3-(trifluoromethyl)pyridin-2-yl)oxy)propanamide], for which the “SSTR4 Activity pEC50” value on SSTR4 [1] was 7.7. Moreover, the “SSTR4 Binding pIC50” value on SSTR4 [2] came to 6.8.

As to `C[C@@H]1CN(CC#N)CC[C@H]1NC(=O)C(C)(C)COc1ncccc1OC(F)(F)F` (relative stereo) [Example 184, trans-N-(1-(cyanomethyl)-3-methylpiperidin-4-yl)-2,2-dimethyl-3-((3-(trifluoromethoxy)pyridin-2-yl)oxy)propanamide], the “SSTR4 Activity pEC50” value at SSTR4 [1] was found to be 7.6. Moreover, the “SSTR4 Binding pIC50” value on SSTR4 [2] is given as 6.0.

Take `C[C@@H]1CN(C)CC[C@H]1NC(=O)C(C)(C)COc1ncccc1OC(F)(F)F` (single isomer, unassigned) [Example 13, trans-N-(1,3-dimethylpiperidin-4-yl)-2,2-dimethyl-3-((3-(trifluoromethoxy)pyridin-2-yl)oxy)propanamide]: the “SSTR4 Activity pEC50” value on SSTR4 [1] turned out to be 8.4. Further, at SSTR4 [2], the “SSTR4 Binding pIC50” value is reported as 7.5.

As to `Cc1cnc(OCC(C)(C)C(=O)N[C@@H]2CCN(C)C[C@H]2C)c(C)c1` (single isomer, unassigned) [Example 31, trans-N-(1,3-dimethylpiperidin-4-yl)-3-((3,5-dimethylpyridin-2-yl)oxy)-2,2-dimethylpropanamide], the EC50 on SSTR4 [1] is 25.1 nM. Besides, at SSTR4 [2], the IC50 is 251 nM.

Turning to `CCC1CC(NC(=O)C(C)(C)COc2ncccc2OC(F)(F)F)CCN1C` (centres unmarked) [Example 146, N-(2-ethyl-1-methylpiperidin-4-yl)-2,2-dimethyl-3-((3-(trifluoromethoxy)pyridin-2-yl)oxy)propanamide], the “SSTR4 Activity pEC50” value at SSTR4 [1] was determined as 6.7.

On to `CN1CCC(NC(=O)C(C)(C)COc2ncccc2C(F)(F)F)C12CCC2` (centres unmarked) [Example 151, 2,2-dimethyl-N-(5-methyl-5-azaspiro[3.4]octan-8-yl)-3-((3-(trifluoromethyl)pyridin-2-yl)oxy)propanamide], for which the EC50 at SSTR4 [1] was 158 nM.

`Cc1cccnc1OCC(C)(C)C(=O)N[C@H]1CN(C)CC12CC2` [Example 153, (R)-2,2-dimethyl-N-(5-methyl-5-azaspiro[2.4]heptan-7-yl)-3-((3-methylpyridin-2-yl)oxy)propanamide]: at SSTR4 [1], the “SSTR4 Activity pEC50” value was found to be 8.1.

On to `Cc1cnc(OCC(C)(C)C(=O)N[C@H]2CN(C)CC23CC3)c(C)c1` [Example 154, (R)-3-((3,5-dimethylpyridin-2-yl)oxy)-2,2-dimethyl-N-(5-methyl-5-azaspiro[2.4]heptan-7-yl)propanamide], for which the “SSTR4 Activity pEC50” value at SSTR4 [1] worked out at 7.4.

For `CC(C)(COc1ncccc1C(F)(F)F)C(=O)NC1CCNCC1(F)F` (centres unmarked) [Example 159, N-(3,3-difluoropiperidin-4-yl)-2,2-dimethyl-3-((3-(trifluoromethyl)pyridin-2-yl)oxy)propanamide], on SSTR4 [1], the “SSTR4 Activity pEC50” value was 6.7.

For `CN(C(=O)C(C)(C)COc1ncccc1C(F)(F)F)[C@H]1CCNC[C@@H]1F` [Example 160, N-((3S,4S)-3-fluoropiperidin-4-yl)-N,2,2-trimethyl-3-((3-(trifluoromethyl)pyridin-2-yl)oxy)propanamide], the “SSTR4 Activity pEC50” value on SSTR4 [1] came out at 6.4.

For `CN1C[C@@H](NC(=O)C(C)(C)COc2ncccc2C(F)(F)F)C2(CC2)C1` [Example 173, (S)-2,2-dimethyl-N-(5-methyl-5-azaspiro[2.4]heptan-7-yl)-3-((3-(trifluoromethyl)pyridin-2-yl)oxy)propanamide], the “SSTR4 Activity pEC50” value at SSTR4 [1] worked out at 6.3.

As for `CN1CCC(NC(=O)C(C)(C)COc2ncccc2OC(F)(F)F)CC12CC2` (centres unmarked) [Example 174, 2,2-dimethyl-N-(4-methyl-4-azaspiro[2.5]octan-7-yl)-3-((3-(trifluoromethoxy)pyridin-2-yl)oxy)propanamide], the “SSTR4 Activity pEC50” value on SSTR4 [1] was 7.0.

As to `CN1CCC(NC(=O)C(C)(C)COc2ncccc2C(F)(F)F)CC12CC2` (centres unmarked) [Example 175, 2,2-dimethyl-N-(4-methyl-4-azaspiro[2.5]octan-7-yl)-3-((3-(trifluoromethyl)pyridin-2-yl)oxy)propanamide], at SSTR4 [1], the “SSTR4 Activity pEC50” value is reported as 6.2.

With `C[C@@H]1C[C@@H](NC(=O)C(C)(C)COc2ncccc2C(F)(F)F)CCN1C` [Example 177, N-((2R,4S)-1,2-dimethylpiperidin-4-yl)-2,2-dimethyl-3-((3-(trifluoromethyl)pyridin-2-yl)oxy)propanamide], the “SSTR4 Activity pEC50” value on SSTR4 [1] stood at 6.9.

As for `C[C@H]1C[C@@H](NC(=O)C(C)(C)COc2ncccc2C(F)(F)F)CCN1C` [Example 178, N-((2S,4S)-1,2-dimethylpiperidin-4-yl)-2,2-dimethyl-3-((3-(trifluoromethyl)pyridin-2-yl)oxy)propanamide], the “SSTR4 Binding pIC50” value at SSTR4 [2] amounted to 6.5.

For `C[C@H]1CN(C)CC[C@@H]1NC(=O)C(C)(C)COc1ccccc1Cl` [Example 193, 3-(2-chlorophenoxy)-N-((3S,4S)-1,3-dimethylpiperidin-4-yl)-2,2-dimethylpropanamide], the “SSTR4 Activity pEC50” value at SSTR4 [1] amounted to 8.9.

Regarding `CN1CCC(NC(=O)C(C)(C)COc2ccccc2F)CC1` [Example 195, 3-(2-fluorophenoxy)-2,2-dimethyl-N-(1-methylpiperidin-4-yl)propanamide], the “SSTR4 Activity pEC50” value at SSTR4 [1] is 6.5.

Take `O=C(N[C@H]1CCNC[C@@H]1F)C(F)(F)COc1ncccc1C1CC1` [Example 198, 3-((3-cyclopropylpyridin-2-yl)oxy)-2,2-difluoro-N-((3S,4S)-3-fluoropiperidin-4-yl)propanamide]: the “SSTR4 Activity pEC50” value on SSTR4 [1] is reported as 8.2.

As to `CN1CCC(NC(=O)C(C)(C)COc2cccc(F)c2)CC1` [Example 203, 3-(3-fluorophenoxy)-2,2-dimethyl-N-(1-methylpiperidin-4-yl)propanamide], the “SSTR4 Activity pEC50” value on SSTR4 [1] turned out to be 7.1.

Regarding `CN1CCC(NC(=O)C(C)(C)COc2ccc(F)cc2)CC1` [Example 204, 3-(4-fluorophenoxy)-2,2-dimethyl-N-(1-methylpiperidin-4-yl)propanamide], the “SSTR4 Activity pEC50” value on SSTR4 [1] was determined as 6.4.

On to `Cc1cccnc1OCC(F)(F)C(=O)N[C@@H]1CCN(C)[C@H](C)C1` [Example 205, N-((2R,4R)-1,2-dimethylpiperidin-4-yl)-2,2-difluoro-3-((3-methylpyridin-2-yl)oxy)propanamide], for which the “SSTR4 Activity pEC50” value on SSTR4 [1] came to 6.9.

With `CN1CCC(NC(=O)C(C)(C)COc2ccc(Cl)cc2)CC1` [Example 217, 3-(4-chlorophenoxy)-2,2-dimethyl-N-(1-methylpiperidin-4-yl)propanamide], the “SSTR4 Activity pEC50” value at SSTR4 [1] is 5.8.
